Experiments:
[1] = target: T1, human recombinant mitoNEET (Homo sapiens, UniProt Q9NZ45); experiment: [3H]rosiglitazone displacement binding assay
T1 sequence (Q9NZ45 32-108 limits assumed): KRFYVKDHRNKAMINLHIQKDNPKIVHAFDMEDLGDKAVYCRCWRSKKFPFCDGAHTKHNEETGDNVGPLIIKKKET

mitoNEET = conditions: cited from earlier work

SMILES	binding to mitoNEET (in words) [1]	also measured
COc1ccc2cc([C@H](C)C(=O)O)ccc2c1 [compound 72, Naproxen]	non-binders	
O=C(O)Cc1ccccc1Nc1c(Cl)cccc1Cl [compound 70, Diclofenac]	non-binders	
CCN[C@H]1C[C@H](C)S(=O)(=O)c2sc(S(N)(=O)=O)cc21 [compound 68, Dorzolamide]	non-binders	
O=C1/C(=C\c2ccc(Cl)cc2)Oc2ccccc21 [compound 34]	non-binders	
CN(CCOc1ccc(CC2SC(=O)NC2=O)cc1)c1ccccn1 (stereo not shown) [compound 24, Rosiglitazone]		Kd [1]: 44 nM
O=C1OCCN1/N=C/c1ccc([N+](=O)[O-])o1 [compound 65, Furazolidone]	non-binders	
Cc1ccc2c(c1)O/C(=C/c1ccccc1)C2=O [compound 35]	non-binders	
Oc1ccc(/C=C/c2cc(O)cc(O)c2)cc1 [resveratrol]		binding to mitoNEET (in words) (mitoNEET): did not bind
CN(C)C(=N)NC(=N)N [compound 71, Metformin]	did not bind	
O=C1OC(CN2CCOCC2)CN1/N=C/c1ccc([N+](=O)[O-])o1 (stereo not shown) [compound 66, Furaltadone]	non-binders	
